Test results taken from US20240358665A1, “SMALL MOLECULE MELPHALAN HYDROGEL AND METHOD FOR PREPARING THE SAME” (Changzhi Medical College, priority 2024, published 2024).

Assay: Change of transmittance over time at 790 nm (ultraviolet spectrophotometer)
Type: physicochemical
Conditions: melphalan dissolved in physiological saline (FIG. 5: 0.9% NaCl, content 2%)
Method: The small molecule melphalan hydrogels prepared in Embodiments 1 to 3 of the present disclosure are tested for transmittance, and the specific testing steps are as follows: • Prepare small molecule melphalan solutions according to the methods in Embodiments 1 to 3 above, take 3 mL of the solution and place it in a glass dish, and place the glass dish in an ultraviolet spectrophotometer, and measure the change of transmittance over time, at 790 nm. The phenomenon that the transmittance gradually decreases from 100% (solution state) to less than 10% proves that the small molecule melphalan solution is transformed into a hydrogel.

SMILES: N[C@@H](Cc1ccc(N(CCCl)CCCl)cc1)C(=O)O [melphalan, Melphalan]
- transmittance after gelation (falls from 100% in solution state): less than 10%
